In patent US7473682B2, “Angiogenic peptides and uses thereof” (Ramot at Tel Aviv University Ltd., priority 2003, dated 2009):

Tests used:
ECs (HUVECs) = assay: EC migration assay with peptide-presenting phages (Chemicon QCM 96-well Migration Assay); format: cell-based, human; conditions: 5 hours; for Migration of activated ECs (phages with ECs in migration chamber): 10^5 or 10^6 phages per well
Method: EC migration assay—EC migration was evaluated by the Chemicon QCM 96-well Migration Assay (Chemicon International, Temecula, Calif., USA) according to the manufacturer's instructions. Briefly, the kit's migration chamber comprises an insert membrane with 8 μm pores and a feeder tray containing the peptides as chemoattractants. Cell migration was evaluated by placing the cells in the migration chamber and following their migration to the bottom of the membrane.
For the migration/chemoattractant assay, ECs from passage 3 were incubated for 24 hours on gelatin-coated plates in the presence of the M199 SFM. Following trypsinization, 2×10^4 ECs were incubated for 5 hours in each of the 96 wells of the migration chamber. The peptide-presenting phages (10^5 or 10^6) were added to the feeder tray to chemoattractant the cells without being in physical contact with the cells. Cells which reached the bottom of the membrane (i.e., migratory cells) were dissociated from the membrane following the incubation with a cell detachment buffer. The migratory cells were subsequently lysed and detected by the molecular probe CyQuant GR dye which exerts green fluorescent enhancement when bound to cellular nucleic acid.
For activation migration assays, 10^5 or 10^6 peptide-presenting phages were incubated (for 5 hours) with ECs in the migration chamber. NO phages (unmodified M13 phages) served as negative control in both migration assays. Results were determined by a fluorescent ELISA reader at 480/520 nm (Fluostar BMG Lab Teck) and are presented in net values from which the control values were subtracted.

[1] = tested on: dermal microvascular endothelial cells (MVECs); assay: Proliferation of dermal microvascular endothelial cells (MVECs) in the presence of synthetic peptides; format: cell-based; conditions: for Increase of MVECs proliferation response / [^3H]-Thymidine uptake in MVECs: normoxia; for [^3H]-Thymidine uptake in MVECs: 0.1-100 ng/ml, 24 hours
Method: Proliferation of dermal microvascular endothelial cells (MVECs) in the presence of synthetic peptides—MVECs were incubated with synthetic peptides (LT, SP, and YR) as described above for HUVECs (ECs), except that the MVECs were seeded in EBM-MV medium containing supplements (Cambrex BioWhittaker Cell Biology Products) and MVECs from passage 4 (rather than 3) were used for proliferation experiments.
(§1) Synthetic peptides induced proliferation or migration after and under hypoxia treatment—Cell proliferation or migration assays were performed as described in Example 3, hereinabove, except that cells were divided to 3 groups: control cells, cells after exposure to hypoxia conditions or cells proliferating under hypoxia conditions. For cell proliferation assays, ECs were incubated with QF, LT and SP and MVECs were incubated with LT, SP, and YR. For cell migration assays, ECs were incubated with EBM-2 and MVECs were incubated with EBM-MV media.

HUVECs (ECs) [2] = assay: EC (HUVEC) migration assay with synthetic peptides; format: cell-based, human; conditions: 5, 10, 20 and 50 ng/ml, 5 hours
Method: Migration assays in the presence of synthetic peptides—EC migration was evaluated as described in Example 2, hereinabove. Following typsinization, ECs (25×10^3) were incubated in migration chambers. For the chemoattactant migration assay, synthetic peptides were added to the feeder tray at 5, 10, 20, and 50 ng/ml and incubated with the cells for 5 or 15 hours. For migration activation assays, synthetic peptides at 0.1, 1, and 10 ng/ml were incubated with the cells in the migration chamber for 5 or 15 hours.
as §1

MVECs = assay: Tube formation assay, MVECs; format: cell-based; conditions: for MVEC tube formation compared to untreated cells: normoxic conditions, 10 ng/ml, matrigel
Method: Tube formation assay—ECs from passage 3 or MVECs from passage 4 were harvested with trypsin and incubated for 24 hours in SFM. Twenty-four—well plates were pre-coated with 250 μl of Cultrex Basement Membrane Extract with reduced growth factors (R&D Systems, Minneapolis, Minn., USA). Five hundred microliters of medium containing 10^6 cells were transferred to the coated wells. Synthetic peptides, FGF, YR, QF, or VL were added to ECs, and VEGF, YR, QF, or VL were added to MVECs at 10 ng/ml. Plates were incubated for 24 hours at 37° C. in the presence of 5% CO2. HUVECs and MVECs were photographed under a light microscope at 20 hours and 8 hours, respectively.
Tube formation assay after and under hypoxia treatment—Tube formation assay was performed as described in Example 3, hereinabove, except that the cells were divided to 3 groups: control cells, cells after exposure to hypoxia conditions, and cells on matrigel basement that form tubes under hypoxia treatment.

HUVECs (ECs) [3] = assay: Proliferation of ECs (HUVECs) in the presence of synthetic peptides ([^3H]-Thymidine uptake); format: cell-based, human; conditions: for Highest proliferative response of ECs, fold increase / [^3H]-Thymidine uptake in ECs: normoxia; for [^3H]-Thymidine uptake in ECs: 0.05-100 ng/ml; for [^3H]-Thymidine uptake in ECs / [^3H]-Thymidine uptake / proliferation of ECs under and following hypoxia: 24 hours
Method: Proliferation of ECs in the presence of synthetic peptides—ECs were incubated in the presence of EBM-2 medium containing supplements (Cambrex BioWhittaker Cell Biology Products, Walkersville, USA). Cells were passaged every 3 days by harvesting cells with 0.25% […] (Biological Industries) and re-plating the cells at a concentration of 10^4 cells per a 25 cm^2 flask. ECs from passage 3 were used for proliferation experiments.
ECs (12×10^3 cells/well) were seeded on 24-well plates in EBM-2 medium containing supplements. Following a 24-hours incubation, cells were subjected to 24 hours of starvation in supplements-free medium (SFM). Synthetic peptides (SP, LT, TR, and VL) were each added at concentrations of 0.05, 0.1, 1, 10, or 100 ng/ml for 24 hours. For a proliferation assay, 2 μCi/well of [^3H]-Thymidine (SIGMA, Rehovot, Israel) were added for a 6-hour incubation, following which the plates were washed 3 times with PBS. For cell lysis, the plates were incubated for 15 minutes at 37° C. with 300 μl/well of 0.5 M NaOH. Subsequently, cell lysates were transferred to scintillation vials containing 2 ml of scintillation liquid (Ultima Gold, Packard Bioscience, Meriden, Conn., USA) and counted (cpm/min) in a β counter (Scintillation β Counter 1600 TR, Packard A Camberra Company, Meriden, Conn., USA).
as §1

rat ischemic hind limb = assay: Rat ischemic hind-limb model, laser-Doppler blood flow; format: in vivo; conditions: 600 μg peptide, days 2, 6, 9 and 13
Method: Rat ischemic hind-limb model and laser-Doppler imager analysis—A rat ischeric hind limb model was used for evaluation of the in vivo potential of angiogenesis induced by the selected synthetic peptides. Ischemia was created in the rat left hind limb by ligation the femoral artery. The right hind limb served as a control. A day after the operation each of the peptides was injected into two sites close to the ligation and one site distal to the ligation. Each rat was treated with each of the peptides in a total amount of 600 μg.
The blood flow was measured using a Laser Doppler Blood Flow analyzer (MoorLDI, Moor Instrument, Wilmington, Del.) at 2, 6, 9 and 13 days after peptides injections. The average perfusion of each limb was computed and blood flow was expressed as the ischemic (left)/control (right) blood flow ratio.

Sequence | Migration of activated ECs (phages with ECs in migration chamber) (ECs (HUVECs)) | EC migration, phages as chemoattractants on feeder tray (ECs (HUVECs); 10^6 phages per well) | [^3H]-Thymidine uptake / proliferation of MVECs after and under hypoxia [1] | Increase of MVECs proliferation after hypoxia ([1]; 1 ng/ml) [fold] | Increase of MVECs proliferation response ([1]; 1 ng/ml) [fold] | [^3H]-Thymidine uptake in MVECs [1] | Increase of MVECs proliferation under hypoxia ([1]; 10 ng/ml) [fold] | EC migration, peptides as chemoattractants in feeder tray (HUVECs (ECs) [2]) | MVEC tube formation compared to untreated cells (MVECs) | Increase of EC proliferation after hypoxia (HUVECs (ECs) [3]; 10 ng/ml) [fold] | Highest proliferative response of ECs, fold increase (HUVECs (ECs) [3]; 10 ng/ml) [fold] | [^3H]-Thymidine uptake in ECs (HUVECs (ECs) [3]) | [^3H]-Thymidine uptake / proliferation of ECs under and following hypoxia (HUVECs (ECs) [3]) | Increase of EC proliferation under hypoxia (HUVECs (ECs) [3]; under hypoxia, 1 ng/ml) [fold] | Median flux of the ischemic leg/control leg (rat ischemic hind limb) [%] | Increase of MVECs proliferation after hypoxia ([1]; 10 ng/ml) [fold] | Increase of MVECs proliferation under hypoxia ([1]; 1 ng/ml) [fold] | MVEC tube formation under hypoxia (MVECs; under hypoxia conditions, 18 hours) | Highest proliferative response of ECs, fold increase (HUVECs (ECs) [3]; 1 ng/ml) [fold] | EC migration, phages as chemoattractants on feeder tray (ECs (HUVECs); 10^5 phages per well)
LLADTTHHRPWT (Phage displayed peptide) [LT] | induced migration | induce migration as chemoattractants | significant dose-dependent increase | 1.7 | 1.8 | significant increase | 1.7 | dose-dependent induced migration | did not induce tube formation | 3.5 | 1.7 | significant dose-dependent increase | significant dose-dependent increase | 1.7 | – | – | – | – | – | –
QPWLEQAYYSTF (Phage displayed peptide) [QF] | induced migration | induce migration as chemoattractants | did not show increase proliferation | – | – | – | – | – | significant increase in tube formation | – | – | – | did not show increase in proliferation | – | 112.5 | – | – | – | – | –
SAHGTSTGVPWP (Phage displayed peptide) | – | induce migration as chemoattractants | significant dose-dependent increase | – | 1.4 | significant increase | – | dose-dependent induced migration | did not induce tube formation | 2 | 1.6 | significant dose-dependent increase | significant dose-dependent increase | – | – | 1.5 | 1.9 | effective only in tube formation under hypoxia conditions | – | –
TLPWLEESYWRP (Phage displayed peptide) [TR] | – | induce migration as chemoattractants | – | – | – | – | – | smaller effect of induced migration | – | – | 1.8 | significant dose-dependent increase | – | – | – | – | – | – | – | –
VPWMEPAYQRFL (Phage displayed peptide) [VL] | – | – | – | – | – | – | – | smaller effect of induced migration | significant increase in tube formation | – | – | significant dose-dependent increase | – | – | – | – | – | – | 1.8 | –
YPHIDSLGHWRR (Phage displayed peptide) [YR] | – | – | – | – | 1.7 | significant increase | – | – | significant increase in tube formation | – | – | – | – | – | 108.2 | – | – | – | – | induce migration as chemoattractants
